Results taken from article PMC11424024 (Methods in enzymology, 2024).

What was measured:
Rv0097 = Rv0097 (Mycobacterium tuberculosis, UniProt P9WG83)
ScoE = ScoE (Streptomyces coeruleorubidus, UniProt A0A3B6UEU3); test: LC-HRMS; type: biochemical; conditions: α-KG, Fe(II); no INBA formed, only a trace of 2

Rv0097, sequence (P9WG83 whole entry): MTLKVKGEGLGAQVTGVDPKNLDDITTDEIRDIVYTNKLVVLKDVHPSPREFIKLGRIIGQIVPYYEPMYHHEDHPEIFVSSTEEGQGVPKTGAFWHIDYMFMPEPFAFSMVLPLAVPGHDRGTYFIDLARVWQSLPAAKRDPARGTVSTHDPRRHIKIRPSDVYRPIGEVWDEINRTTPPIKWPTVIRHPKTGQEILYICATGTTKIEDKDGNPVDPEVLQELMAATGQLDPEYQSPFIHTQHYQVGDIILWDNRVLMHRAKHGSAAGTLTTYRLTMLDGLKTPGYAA

SMILES: CCCCCCCC(CC(=O)O)NCC(=O)O (racemic) [CADA, 3-[(carboxymethyl)amino]decanoic acid]
- LC-HRMS of INDA formation (Rv0097): We reconstituted the activity of Rv0097 using the surrogate substrate CADA

SMILES: C[C@H](CC(=O)O)NCC(=O)O [CABA, (R)-3-((carboxymethyl)amino)butanoic acid]
- LC-HRMS; glyoxylate derivatization with 2-nitrophenylhydrazine (ScoE): Y96F ScoE mutant revealed that it was unable to synthesize INBA from CABA
